Laboratory results taken from US6992169B2, “Carrier based drug delivery system” (Cyclacel Limited, priority 1998, dated 2006).

How the values were obtained:
[1] = system: HT29; assay: In vitro cytotoxic activity, inhibition of cell proliferation, ATP bioluminescence (ViaLight); assay type: cell-based, human
Experimental: (§1) This compound (abbreviated ‘MTX-Pen’ in the tables below) was evaluated for its ability to inhibit cell proliferation of normal (immortalised) human cells (HaCaT cells, Tables 1 & 2) and a human colorectal cancer cell line (HT29, Table 3).
(§2) Assay procedure—Cells were seeded into 96-well plates at 2,500 cells/well in DMEM with 10% FCS and antibiotics. After overnight incubation, test compound dilutions in cell medium were prepared and were added to the cells. Samples were taken 1, 2, 3, and 4 days after compound addition. Nucleotide Releasing Reagent (LumiTech ViaLight kit) was added in order to lyse the cells and release ATP. After incubation at room temperature (5 min), the mixtures were transferred to opaque 96-well plates and stored at −20° C. until analysis. After loading plates into a luminometer (Lucy 1, Labtech International), ATP Monitoring Reagent (20 μL/well, LumiTech ViaLight kit) was added to each well successively and light intensity was measured immediately. Six readings were taken per sample. Each assay point was established using six replicates and appropriate controls. […] Statistically significant results in the tables below are printed in bold face.
(§3) This compound (abbreviated ‘MTX-Pen’ in tables below) was evaluated for its ability to inhibit cell proliferation of normal (immortalised) human cells (HaCaT cells, Tables 1 & 2) and a human colorectal cancer cell line (HT29, Table 3).
(§4) Assay procedure—Cells were seeded into 96-well plates at 2,500 cells/well in DMEM with 10% foetal calf serum and antibiotics. After overnight incubation, test compound dilutions in cell medium were prepared and were added to the cells. Samples were taken 1, 2, 3, and 4 days after compound addition. Nucleotide Releasing Reagent (LumiTech ViaLight kit) was added in order to lyse the cells and release ATP. After incubation at room temperature (5 min), the mixtures were transferred to opaque 96-well plates and stored at −20° C. until analysis. After loading plates into a luminometer (Lucy 1, Labtech International), ATP Monitoring Reagent ([…], LumiTech ViaLight kit) was added to each well successively and light intensity was measured immediately. Six readings were taken per sample. Each assay point was established using six replicates and appropriate controls.

[2] = system: HaCaT cells; assay: as above; assay type: cell-based, human
Experimental: as §1, §2, §3, §4

[3] = Table 3, HT 29, Dose 0.5 μM, Day 1
[4] = Table 3, HT 29, Dose 0.5 μM, Day 2
[5] = Table 3, HT 29, Dose 0.5 μM, Day 3
[6] = Table 3, HT 29, Dose 0.5 μM, Day 4
[7] = Table 3, HT 29, Dose 1.5 μM, Day 1
[8] = Table 3, HT 29, Dose 1.5 μM, Day 2
[9] = Table 3, HT 29, Dose 1.5 μM, Day 3
[10] = Table 3, HT 29, Dose 1.5 μM, Day 4
[11] = Table 3, HT 29, Dose 4.4 μM, Day 1
[12] = Table 3, HT 29, Dose 4.4 μM, Day 2
[13] = Table 3, HT 29, Dose 4.4 μM, Day 3
[14] = Table 3, HT 29, Dose 4.4 μM, Day 4
[15] = Table 1, HaCaT, Dose 0.2 μM, Day 1
[16] = Table 1, HaCaT, Dose 0.2 μM, Day 2
[17] = Table 1, HaCaT, Dose 0.2 μM, Day 3
[18] = Table 1, HaCaT, Dose 0.2 μM, Day 4
[19] = Table 1, HaCaT, Dose 0.5 μM, Day 1
[20] = Table 1, HaCaT, Dose 0.5 μM, Day 2
[21] = Table 1, HaCaT, Dose 0.5 μM, Day 3
[22] = Table 1, HaCaT, Dose 0.5 μM, Day 4
[23] = Table 1, HaCaT, Dose 1.5 μM, Day 1
[24] = Table 1, HaCaT, Dose 1.5 μM, Day 2
[25] = Table 1, HaCaT, Dose 1.5 μM, Day 3
[26] = Table 1, HaCaT, Dose 1.5 μM, Day 4
[27] = Table 1, HaCaT, Dose 4.4 μM, Day 1
[28] = Table 1, HaCaT, Dose 4.4 μM, Day 2
[29] = Table 1, HaCaT, Dose 4.4 μM, Day 3
[30] = Table 1, HaCaT, Dose 4.4 μM, Day 4
[31] = Table 1, HaCaT, Dose 13.3 μM, Day 1
[32] = Table 1, HaCaT, Dose 13.3 μM, Day 2
[33] = Table 1, HaCaT, Dose 13.3 μM, Day 3
[34] = Table 1, HaCaT, Dose 13.3 μM, Day 4
[35] = Table 1, HaCaT, Dose 40.0 μM, Day 1
[36] = Table 1, HaCaT, Dose 40.0 μM, Day 2
[37] = Table 1, HaCaT, Dose 40.0 μM, Day 3
[38] = Table 1, HaCaT, Dose 40.0 μM, Day 4
[39] = Table 2, HaCaT, Dose 0.5 μM, Day 1
[40] = Table 2, HaCaT, Dose 0.5 μM, Day 2
[41] = Table 2, HaCaT, Dose 0.5 μM, Day 3
[42] = Table 2, HaCaT, Dose 0.5 μM, Day 4
[43] = Table 2, HaCaT, Dose 1.5 μM, Day 1
[44] = Table 2, HaCaT, Dose 1.5 μM, Day 2
[45] = Table 2, HaCaT, Dose 1.5 μM, Day 3
[46] = Table 2, HaCaT, Dose 1.5 μM, Day 4
[47] = Table 2, HaCaT, Dose 4.4 μM, Day 1
[48] = Table 2, HaCaT, Dose 4.4 μM, Day 2
[49] = Table 2, HaCaT, Dose 4.4 μM, Day 3
[50] = Table 2, HaCaT, Dose 4.4 μM, Day 4

CN(Cc1cnc2nc(N)nc(N)c2n1)c1ccc(C(=O)N[C@@H](CCC(=O)O)C(=O)O)cc1 [MTX, methotrexate]
% Cell Death ([1]; Table 3, HT 29, Dose 0.1 μM, Day 1): 6% | % Cell Death ([1]; Table 3, HT 29, Dose 0.1 μM, Day 2): −17% | % Cell Death ([1]; Table 3, HT 29, Dose 0.1 μM, Day 3): 52% | % Cell Death ([1]; Table 3, HT 29, Dose 0.1 μM, Day 4): 84% | % Cell Death ([1]; Table 3, HT 29, Dose 0.2 μM, Day 1): 10% | % Cell Death ([1]; Table 3, HT 29, Dose 0.2 μM, Day 2): −5% | % Cell Death ([1]; Table 3, HT 29, Dose 0.2 μM, Day 3): 54% | % Cell Death ([1]; Table 3, HT 29, Dose 0.2 μM, Day 4): 85% | % Cell Death [1, 3]: 15% | % Cell Death [1, 4]: −12% | % Cell Death [1, 5]: 52% | % Cell Death [1, 6]: 88% | % Cell Death [1, 7]: 17% | % Cell Death [1, 8]: −5% | % Cell Death [1, 9]: 48% | % Cell Death [1, 10]: 84% | % Cell Death [1, 11]: −14% | % Cell Death [1, 12]: −4% | % Cell Death [1, 13]: 58% | % Cell Death [1, 14]: 86% | % Cell Death [2, 15]: 7% | % Cell Death [2, 16]: 11% | % Cell Death [2, 17]: 79% | % Cell Death [2, 18]: 93% | % Cell Death [2, 19]: −4% | % Cell Death [2, 20]: 31% | % Cell Death [2, 21]: 75% | % Cell Death [2, 22]: 93% | % Cell Death [2, 23]: 13% | % Cell Death [2, 24]: 31% | % Cell Death [2, 25]: 77% | % Cell Death [2, 26]: 94% | % Cell Death [2, 27]: 4% | % Cell Death [2, 28]: 24% | % Cell Death [2, 29]: 77% | % Cell Death [2, 30]: 93% | % Cell Death [2, 31]: 22% | % Cell Death [2, 32]: 35% | % Cell Death [2, 33]: 82% | % Cell Death [2, 34]: 92% | % Cell Death [2, 35]: 4% | % Cell Death [2, 36]: 15% | % Cell Death [2, 37]: 79% | % Cell Death [2, 38]: 92% | % Cell Death ([2]; Table 2, HaCaT, Dose 0.1 μM, Day 1): 19% | % Cell Death ([2]; Table 2, HaCaT, Dose 0.1 μM, Day 2): 7% | % Cell Death ([2]; Table 2, HaCaT, Dose 0.1 μM, Day 3): 45% | % Cell Death ([2]; Table 2, HaCaT, Dose 0.1 μM, Day 4): 65% | % Cell Death ([2]; Table 2, HaCaT, Dose 0.2 μM, Day 1): 3% | % Cell Death ([2]; Table 2, HaCaT, Dose 0.2 μM, Day 2): 41% | % Cell Death ([2]; Table 2, HaCaT, Dose 0.2 μM, Day 3): 94% | % Cell Death ([2]; Table 2, HaCaT, Dose 0.2 μM, Day 4): 86% | % Cell Death [2, 39]: 0% | % Cell Death [2, 40]: 59% | % Cell Death [2, 41]: 96% | % Cell Death [2, 42]: 91% | % Cell Death [2, 43]: 14% | % Cell Death [2, 44]: 67% | % Cell Death [2, 45]: 96% | % Cell Death [2, 46]: 91% | % Cell Death [2, 47]: 21% | % Cell Death [2, 48]: 70% | % Cell Death [2, 49]: 97% | % Cell Death [2, 50]: 92%

{[4[N-(2,4-Diamino-6-pteridinyl-methyl)-N-methylamino]benzoyl]-Glu-Gly-βAla}4-Lys2-Lys-βAla-Arg-Gln-Ile-Lys-Ile-Trp-Phe-Gln-Asn-Arg-Arg-Met-Lys-Trp-Lys-Lys-OH [MTX-Pen]
% Cell Death [1, 3]: 14% | % Cell Death [1, 4]: 8% | % Cell Death [1, 5]: 17% | % Cell Death [1, 6]: 16% | % Cell Death [1, 7]: 16% | % Cell Death [1, 8]: 9% | % Cell Death [1, 9]: 15% | % Cell Death [1, 10]: 45% | % Cell Death [1, 11]: 10% | % Cell Death [1, 12]: 6% | % Cell Death [1, 13]: 46% | % Cell Death [1, 14]: 77% | % Cell Death ([1]; Table 3, HT 29, Dose 13.3 μM, Day 1): 3% | % Cell Death ([1]; Table 3, HT 29, Dose 13.3 μM, Day 2): 45% | % Cell Death ([1]; Table 3, HT 29, Dose 13.3 μM, Day 3): 88% | % Cell Death ([1]; Table 3, HT 29, Dose 13.3 μM, Day 4): 96% | % Cell Death ([1]; Table 3, HT 29, Dose 40.0 μM, Day 1): 31% | % Cell Death ([1]; Table 3, HT 29, Dose 40.0 μM, Day 2): 79% | % Cell Death ([1]; Table 3, HT 29, Dose 40.0 μM, Day 3): 96% | % Cell Death ([1]; Table 3, HT 29, Dose 40.0 μM, Day 4): 98% | % Cell Death [2, 15]: 14% | % Cell Death [2, 16]: 21% | % Cell Death [2, 17]: 20% | % Cell Death [2, 18]: 51% | % Cell Death [2, 19]: −19% | % Cell Death [2, 20]: 2% | % Cell Death [2, 21]: 29% | % Cell Death [2, 22]: 49% | % Cell Death [2, 23]: −24% | % Cell Death [2, 24]: 82% | % Cell Death [2, 25]: 82% | % Cell Death [2, 26]: 88% | % Cell Death [2, 27]: −8% | % Cell Death [2, 28]: 45% | % Cell Death [2, 29]: 95% | % Cell Death [2, 30]: 98% | % Cell Death [2, 31]: −42% | % Cell Death [2, 32]: 63% | % Cell Death [2, 33]: 97% | % Cell Death [2, 34]: 98% | % Cell Death [2, 35]: 29% | % Cell Death [2, 36]: 82% | % Cell Death [2, 37]: 97% | % Cell Death [2, 38]: 98% | % Cell Death [2, 39]: 13% | % Cell Death [2, 40]: 24% | % Cell Death [2, 41]: −27% | % Cell Death [2, 42]: 2% | % Cell Death [2, 43]: 19% | % Cell Death [2, 44]: 12% | % Cell Death [2, 45]: −16% | % Cell Death [2, 46]: 17% | % Cell Death [2, 47]: 15% | % Cell Death [2, 48]: 52% | % Cell Death [2, 49]: 95% | % Cell Death [2, 50]: 88% | % Cell Death ([2]; Table 2, HaCaT, Dose 13.3 μM, Day 1): 27% | % Cell Death ([2]; Table 2, HaCaT, Dose 13.3 μM, Day 2): 87% | % Cell Death ([2]; Table 2, HaCaT, Dose 13.3 μM, Day 3): 95% | % Cell Death ([2]; Table 2, HaCaT, Dose 13.3 μM, Day 4): 94% | % Cell Death ([2]; Table 2, HaCaT, Dose 40.0 μM, Day 1): 42% | % Cell Death ([2]; Table 2, HaCaT, Dose 40.0 μM, Day 2): 88% | % Cell Death ([2]; Table 2, HaCaT, Dose 40.0 μM, Day 3): 95% | % Cell Death ([2]; Table 2, HaCaT, Dose 40.0 μM, Day 4): 94%
